# Assay results published in ChEMBL document CHEMBL1201862, “PubChem BioAssay data set” (2004).
#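 Growth conditions: 96-well plates. Treatment: test compound, 48 hours, 5 concentrations. Analysis: linear interpolation between bracketing concentrations; unreached endpoints set to highest concentration. GI50 is the concentration that inhibits growth by half.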 The source made the active and inactive calls. Cut-off read from the data, not from the text of the source: active = GI50 up to about 1.1 µM and inactive = higher.
# What was measured:
# Test in all cases: inhibition of tumour cell growth, NCI panel, 48 h
# KM12 = tested on: KM12
# HCT-15 = tested on: HCT-15
# OVCAR-8 = tested on: OVCAR-8
# HOP-62 = tested on: HOP-62
# UO-31 = tested on: UO-31
# RXF 393 = tested on: RXF 393
# MDA-N = tested on: MDA-N
# SN12C = tested on: SN12C
# PC-3 = tested on: PC-3
# MDA-MB-231 = tested on: MDA-MB-231
# RPMI-8226 = tested on: RPMI-8226
# HT-29 = tested on: HT-29
# BT-549 = tested on: BT-549
# HOP-92 = tested on: HOP-92
# Malme-3M = tested on: Malme-3M
# SNB-75 = tested on: SNB-75
# CAKI-1 = tested on: CAKI-1
# COLO 205 = tested on: COLO 205
# HCC 2998 = tested on: HCC 2998
# OVCAR-3 = tested on: OVCAR-3
# SNB-19 = tested on: SNB-19
# UACC-257 = tested on: UACC-257
# NCI-H23 = tested on: NCI-H23
# CCRF-CEM = tested on: CCRF-CEM
# UACC-62 = tested on: UACC-62
# MCF7 = tested on: MCF7
# MDA-MB-435 = tested on: MDA-MB-435
# SK-MEL-28 = tested on: SK-MEL-28
# ACHN = tested on: ACHN
# OVCAR-5 = tested on: OVCAR-5
# Hs-578T = tested on: Hs-578T
# OVCAR-4 = tested on: OVCAR-4
# NCI-H226 = tested on: NCI-H226
# 786-0 = tested on: 786-0
# A549 = tested on: A549
# HCT-116 = tested on: HCT-116
# K562 = tested on: K562
# SR = tested on: SR
# SW-620 = tested on: SW-620
# U-251 = tested on: U-251
# NCI-H460 = tested on: NCI-H460
# NCI-H522 = tested on: NCI-H522
# EKVX = tested on: EKVX
# DU-145 = tested on: DU-145
# LOX IMVI = tested on: LOX IMVI
# SF-295 = tested on: SF-295
# SK-MEL-5 = tested on: SK-MEL-5
# TK-10 = tested on: TK-10
# SK-OV-3 = tested on: SK-OV-3
# NCI/ADR-RES = tested on: NCI/ADR-RES
# T47D = tested on: T47D
# M14 = tested on: M14
# SK-MEL-2 = tested on: SK-MEL-2
# A498 = tested on: A498
# MOLT-4 = tested on: MOLT-4
# SF-268 = tested on: SF-268
# IGROV-1 = tested on: IGROV-1
# HL-60 = tested on: HL-60
# SF-539 = tested on: SF-539
smiles,measurement,setting,value
O=C1Nc2ccc(S(=O)(=O)N(CCO)CCO)cc2/C1=C1/Nc2ccccc2C1=O,GI50,KM12,17.7 µM (inactive)
same,GI50,HCT-15,> 100 µM
same,GI50,OVCAR-8,> 100 µM (inactive)
same,GI50,HOP-62,> 100 µM (inactive)
same,GI50,UO-31,> 100 µM (inactive)
same,GI50,RXF 393,1.56 µM (inactive)
same,GI50,MDA-N,> 100 µM (inactive)
same,GI50,SN12C,> 100 µM (inactive)
same,GI50,PC-3,30.3 µM (inactive)
same,GI50,MDA-MB-231,40.5 µM (inactive)
same,GI50,RPMI-8226,> 100 µM (inactive)
same,GI50,HT-29,> 100 µM (inactive)
same,GI50,BT-549,> 100 µM (inactive)
same,GI50,HOP-92,> 100 µM (inactive)
same,GI50,Malme-3M,> 100 µM (inactive)
same,GI50,SNB-75,2.82 µM (inactive)
same,GI50,CAKI-1,> 100 µM (inactive)
same,GI50,COLO 205,8.05 µM (inactive)
same,GI50,HCC 2998,> 100 µM (inactive)
same,GI50,OVCAR-3,18.2 µM (inactive)
same,GI50,SNB-19,> 100 µM (inactive)
same,GI50,UACC-257,> 100 µM (inactive)
same,GI50,NCI-H23,> 100 µM (inactive)
same,GI50,CCRF-CEM,> 100 µM (inactive)
same,GI50,UACC-62,> 100 µM (inactive)
same,GI50,MCF7,0.615 µM (active)
same,GI50,MDA-MB-435,> 100 µM (inactive)
same,GI50,SK-MEL-28,> 100 µM (inactive)
same,GI50,ACHN,> 100 µM (inactive)
same,GI50,OVCAR-5,> 100 µM (inactive)
same,GI50,Hs-578T,> 100 µM (inactive)
same,GI50,OVCAR-4,48 µM (inactive)
same,GI50,NCI-H226,> 100 µM (inactive)
same,GI50,786-0,> 100 µM (inactive)
same,GI50,A549,> 100 µM (inactive)
same,GI50,HCT-116,51.6 µM (inactive)
same,GI50,K562,> 100 µM (inactive)
same,GI50,SR,1.91 µM (inactive)
same,GI50,SW-620,> 100 µM (inactive)
same,GI50,U-251,96.6 µM (inactive)
same,GI50,NCI-H460,> 100 µM (inactive)
same,GI50,NCI-H522,> 100 µM (inactive)
same,GI50,EKVX,> 100 µM (inactive)
same,GI50,DU-145,13.3 µM (inactive)
same,GI50,LOX IMVI,> 100 µM (inactive)
same,GI50,SF-295,> 100 µM (inactive)
same,GI50,SK-MEL-5,> 100 µM (inactive)
same,GI50,TK-10,> 100 µM (inactive)
same,GI50,SK-OV-3,> 100 µM (inactive)
same,GI50,NCI/ADR-RES,> 100 µM (inactive)
same,GI50,T47D,0.679 µM (active)
same,GI50,M14,> 100 µM (inactive)
same,GI50,SK-MEL-2,> 100 µM (inactive)
same,GI50,A498,> 100 µM (inactive)
same,GI50,MOLT-4,62.4 µM (inactive)
same,GI50,SF-268,> 100 µM (inactive)
same,GI50,IGROV-1,2.5 µM (inactive)
c1ccc2c(c1)CCN2CCc1c[nH]c2ccccc12,GI50,KM12,> 10 µM (inactive)
same,GI50,HCT-15,> 10 µM
same,GI50,OVCAR-8,> 10 µM (inactive)
same,GI50,HOP-62,> 10 µM (inactive)
same,GI50,UO-31,> 10 µM (inactive)
same,GI50,RXF 393,> 10 µM (inactive)
same,GI50,MDA-N,> 10 µM (inactive)
same,GI50,SN12C,> 10 µM (inactive)
same,GI50,PC-3,> 10 µM (inactive)
same,GI50,MDA-MB-231,> 10 µM (inactive)
same,GI50,RPMI-8226,> 10 µM (inactive)
same,GI50,HT-29,> 10 µM (inactive)
same,GI50,BT-549,> 10 µM (inactive)
same,GI50,HOP-92,> 10 µM (inactive)
same,GI50,Malme-3M,> 10 µM (inactive)
same,GI50,SNB-75,> 10 µM (inactive)
same,GI50,CAKI-1,> 10 µM (inactive)
same,GI50,COLO 205,> 10 µM (inactive)
same,GI50,HCC 2998,> 10 µM (inactive)
same,GI50,OVCAR-3,> 10 µM (inactive)
same,GI50,SNB-19,> 10 µM (inactive)
same,GI50,UACC-257,> 10 µM (inactive)
same,GI50,NCI-H23,> 10 µM (inactive)
same,GI50,CCRF-CEM,> 10 µM (inactive)
same,GI50,UACC-62,> 10 µM (inactive)
same,GI50,MCF7,> 10 µM (inactive)
same,GI50,MDA-MB-435,> 10 µM (inactive)
same,GI50,SK-MEL-28,> 10 µM (inactive)
same,GI50,ACHN,> 10 µM (inactive)
same,GI50,OVCAR-5,> 10 µM (inactive)
same,GI50,Hs-578T,> 10 µM (inactive)
same,GI50,OVCAR-4,> 10 µM (inactive)
same,GI50,NCI-H226,> 10 µM (inactive)
same,GI50,786-0,> 10 µM (inactive)
same,GI50,HL-60,> 10 µM (inactive)
same,GI50,A549,> 10 µM (inactive)
same,GI50,HCT-116,> 10 µM (inactive)
same,GI50,K562,> 10 µM (inactive)
same,GI50,SR,> 10 µM (inactive)
same,GI50,SW-620,> 10 µM (inactive)
same,GI50,U-251,> 10 µM (inactive)
same,GI50,NCI-H460,> 10 µM (inactive)
same,GI50,NCI-H522,> 10 µM (inactive)
same,GI50,EKVX,> 10 µM (inactive)
same,GI50,DU-145,> 10 µM (inactive)
same,GI50,LOX IMVI,> 10 µM (inactive)
same,GI50,SF-295,> 10 µM (inactive)
same,GI50,SK-MEL-5,> 10 µM (inactive)
same,GI50,TK-10,> 10 µM (inactive)
same,GI50,SK-OV-3,> 10 µM (inactive)
same,GI50,NCI/ADR-RES,> 10 µM (inactive)
same,GI50,SF-539,> 10 µM (inactive)
same,GI50,T47D,> 10 µM (inactive)
same,GI50,M14,> 10 µM (inactive)
same,GI50,SK-MEL-2,> 10 µM (inactive)
same,GI50,MOLT-4,> 10 µM (inactive)
same,GI50,SF-268,> 10 µM (inactive)
same,GI50,IGROV-1,> 10 µM (inactive)
